From US20230052403A1, “MIXTURES COMPRISING A SOLID CARRIER COMPRISING AN UREASE INHIBITOR AND A FURTHER SOLID CARRIER COMPRISING A NITRIFICATION INHIBITOR” (BASF SE, priority 2020, published 2023)
Like-named read-outs stand apart in the source and are kept apart here.

Test system: urease
Method: The urea-stabilizing effect detected as the volatile NH3 losses from soil surface applied urea:
176 g air dried soil is filled into 500 mL laboratory bottle, which is then be watered with de-ionized water up to 50% of its water holding capacity and incubated at room temperature (about 21° C.) for 24 h.
Urea granules are evenly distributed on the soil in each bottle. Each granule is treated with 5 μL of the respective products, containg the compositions and mixtures of the invention in the appropriate concentrations. N amount applied was 80 mg per bottle.
NH3 free air blows constantly at a rate of about 4 L per min. through the bottle which bubbles through a scrubber solution which is periodically renewed and analyzed for NH4^+ with an autoanalyzer.

For `CCCCNP(N)(N)=S` [NBPT, N-(n-butyl)thiophosphoric acid triamide], the “reduction of NH3—N losses (UI effect), in words” value (“reduction of NH3—N losses” for short) (Piammon, UI and DMPP on the same granules) was “Nearly no reduction of NH3—N losses”, the “stability of the urease inhibitor, in words” value (UI and DMPP on the same Piammon granules) was “destroyed by DMPP” and the “stability of the urease inhibitor, in words” value (UI and DMPP on the same urea granules) was “destroyed by DMPP”. For the same molecule, the “reduction of NH3—N losses” value (UI applied on Piammon granules only as well as mixed with DMPSA-treated AS granules) was “Significant reduction of NH3—N losses”, the “reduction of NH3—N losses” value (UI applied on urea granules only and mixed with DMPP-treated AS granules) was “Significant reduction of NH3—N losses” and the “reduction of NH3—N losses” value (UI applied on urea granules only and mixed with DMPP-treated urea granules) was “Significant reduction of NH3—N losses”. For the same molecule, the “reduction of NH3—N losses” value (UI applied on urea granules only as well as mixed with DMPSA-treated urea granules) was “Significant reduction of NH3—N losses” and the “reduction of NH3—N losses” value (urea, UI and DMPP on the same urea granules) was “No reduction of NH3—N losses”.
